Source: ChEMBL document CHEMBL1201862, “PubChem BioAssay data set” (2004)
The source made the active and inactive calls.

Experiments:
[1] = Vero cell cytotoxicity, cytotoxicity control for M. tuberculosis inhibitor project, purified and synthesized samples, set 3 (AID 504684); type: functional
[2] = A Cell Based Secondary Assay to Explore Cytotoxicity in THP-1 Cells of Compounds that Modulate Mycobacterium tuberculosis in Media Containing Glycerol versus Media without Glycerol (2).; type: functional
[3] = Luminescence Cell-Based Dose Retest to Confirm Inhibitors of Cancer Stem Cells. [Related pubchem assays (depositor defined):AID2717, AID2721]; type: functional; conditions: Homo sapiens
[4] = microbe, parasite or virus in culture; type: functional; conditions: Mycobacterium tuberculosis
[5] = A Cell Based Secondary Assay to Explore Cytotoxicity in HepG2 Cells of Compounds that Modulate Mycobacterium tuberculosis in Media Containing Glycerol versus Media without Glycerol (2).; type: functional
[6] = biological target: T1, Short transient receptor potential channel 4 (Mus musculus, UniProt Q9QUQ5); assay: mouse TRPC4 channel inhibitors, dose response, cell-based, HEK293 TRPC4/mu-opioid, Fluo-4 calcium (AID 434942); type: functional;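 also: potency of inhibitors blocking the TRPC4 calcium response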
T1 sequence (Q9QUQ5 whole entry): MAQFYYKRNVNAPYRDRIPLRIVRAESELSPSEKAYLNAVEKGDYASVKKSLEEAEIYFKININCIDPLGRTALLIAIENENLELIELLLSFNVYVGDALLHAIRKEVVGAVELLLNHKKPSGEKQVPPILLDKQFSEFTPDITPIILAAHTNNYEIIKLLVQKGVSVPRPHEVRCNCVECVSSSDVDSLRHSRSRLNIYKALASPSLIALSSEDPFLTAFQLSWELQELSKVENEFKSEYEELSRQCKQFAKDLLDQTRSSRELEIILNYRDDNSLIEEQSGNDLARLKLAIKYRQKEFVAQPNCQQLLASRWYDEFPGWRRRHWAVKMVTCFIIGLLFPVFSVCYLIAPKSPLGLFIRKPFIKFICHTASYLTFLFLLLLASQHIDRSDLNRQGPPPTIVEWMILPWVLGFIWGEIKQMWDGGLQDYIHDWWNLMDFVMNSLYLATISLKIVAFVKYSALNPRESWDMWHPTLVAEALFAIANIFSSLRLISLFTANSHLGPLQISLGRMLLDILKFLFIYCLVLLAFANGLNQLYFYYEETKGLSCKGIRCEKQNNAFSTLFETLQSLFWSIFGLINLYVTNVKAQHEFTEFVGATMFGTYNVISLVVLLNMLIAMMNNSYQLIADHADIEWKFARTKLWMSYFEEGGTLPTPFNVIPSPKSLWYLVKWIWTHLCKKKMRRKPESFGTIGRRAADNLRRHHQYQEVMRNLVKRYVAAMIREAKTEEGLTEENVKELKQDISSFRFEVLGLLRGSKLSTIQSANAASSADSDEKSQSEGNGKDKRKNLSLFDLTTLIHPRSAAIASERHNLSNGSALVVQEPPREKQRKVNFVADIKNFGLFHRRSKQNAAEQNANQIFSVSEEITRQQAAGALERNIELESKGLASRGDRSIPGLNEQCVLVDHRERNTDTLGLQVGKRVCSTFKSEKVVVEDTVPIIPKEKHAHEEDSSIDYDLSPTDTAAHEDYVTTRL

Orexin receptor type 2 [7] = biological target: T2, Orexin receptor type 2 (Homo sapiens, UniProt O43614); assay: Counterscreen assay for antagonists of the orexin 1 receptor (OX1R; HCRTR1): Homogeneous Time Resolved Fluorescence (HTRF)-based cell-based dose response assay for antagonists of the orexin 2 receptor (OX2R; HCRTR2), run by assay provider.; type: functional
T2 sequence (O43614 whole entry): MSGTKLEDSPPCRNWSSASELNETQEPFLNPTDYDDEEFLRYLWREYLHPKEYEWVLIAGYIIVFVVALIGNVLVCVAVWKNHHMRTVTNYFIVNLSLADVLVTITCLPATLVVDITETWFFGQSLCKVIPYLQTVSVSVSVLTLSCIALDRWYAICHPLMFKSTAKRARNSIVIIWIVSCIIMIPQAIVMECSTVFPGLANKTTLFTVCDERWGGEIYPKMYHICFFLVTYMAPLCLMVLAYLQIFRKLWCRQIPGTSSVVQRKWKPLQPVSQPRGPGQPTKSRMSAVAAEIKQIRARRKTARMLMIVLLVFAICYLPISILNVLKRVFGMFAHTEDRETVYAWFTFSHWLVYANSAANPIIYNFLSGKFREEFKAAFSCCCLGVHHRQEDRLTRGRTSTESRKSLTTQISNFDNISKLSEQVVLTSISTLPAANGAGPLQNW

[8] = (§1) Counterscreen for antagonists of the orexin 1 receptor (OX1R; HCRTR1): Fluorescence-based cell-based high throughput dose response assay to identify antagonists of the parental CHO cell line. [Related pubchem assays (depositor defined):AID434989, AID435008, AID463079, AID485270, AID492963, AID492964, AID492965, AID493232, AID504699, AID504701]; type: functional
[9] = biological target: T3, Orexin/Hypocretin receptor type 1 (Homo sapiens, UniProt O43613); assay: Homogeneous Time Resolved Fluorescence (HTRF)-based cell-based high throughput dose response assay for antagonists of the orexin 1 receptor (OX1R; HCRTR1). [Related pubchem assays (depositor defined):AID434989, AID435008, AID463079, AID485270, AID492963, AID492964, AID492965, AID493232, AID504717, AID504718]; type: functional
T3 sequence (O43613 whole entry): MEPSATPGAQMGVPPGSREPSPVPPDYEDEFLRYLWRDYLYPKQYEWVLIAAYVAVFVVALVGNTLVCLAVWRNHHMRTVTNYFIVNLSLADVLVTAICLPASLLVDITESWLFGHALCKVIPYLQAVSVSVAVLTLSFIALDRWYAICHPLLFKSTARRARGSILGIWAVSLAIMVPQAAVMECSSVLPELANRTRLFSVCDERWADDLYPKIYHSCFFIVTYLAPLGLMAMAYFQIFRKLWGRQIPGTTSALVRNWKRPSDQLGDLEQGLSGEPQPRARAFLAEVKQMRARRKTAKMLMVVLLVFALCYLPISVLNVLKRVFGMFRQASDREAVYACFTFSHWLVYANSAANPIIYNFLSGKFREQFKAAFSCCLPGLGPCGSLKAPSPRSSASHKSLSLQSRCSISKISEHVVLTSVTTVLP

CHO-K1 = assay: as §1, with “Homogeneous time resolved fluorescence (HTRF)-based” for “Fluorescence-based”, “cell-based” for “cell-based high throughput”, “CHO-K1” for “CHO”; type: functional; conditions: Cricetulus griseus;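 also: potency for inhibition of ATP-stimulated IP1 production as antagonists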
Orexin receptor type 2 [10] = biological target: T2, Orexin receptor type 2; assay: Counterscreen assay for antagonists of the orexin 1 receptor (OX1R; HCRTR1): Fluorescence-based cell-based dose response assay for antagonists of the orexin 2 receptor (OX2R; HCRTR2), run by assay provider.; type: functional
[11] = biological target: T3, Orexin/Hypocretin receptor type 1; assay: Fluorescence-based cell-based high throughput dose response assay for antagonists of the orexin 1 receptor (OX1R; HCRTR1). [Related pubchem assays (depositor defined):AID434989, AID435008, AID463079, AID485270, AID492963, AID492964, AID492965, AID493232, AID504717, AID504718]; type: functional
[12] = biological target: G-protein coupled receptor 55 (Homo sapiens, UniProt Q9Y2T6); assay: GPR55 antagonists blocking LPI-driven arrestin recruitment, primary screen, imaging, U2OS, beta-arrestin-GFP, LPI agonist (AID 2013); type: functional;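 also: antagonist potency measured as reduced agonist-driven arrestin aggregation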
[13] = biological target: Botulinum neurotoxin type A (Clostridium botulinum (strain Hall / ATCC 3502 / NCTC 13319 / Type A), UniProt P0DPI1); assay: High-throughput multiplex microsphere dose response for inhibitors of toxin protease, specifically Botulinum neurotoxin light chain A protease, compounds from Cherry Pick 01.; type: functional; conditions: read-out: EC50_MICROM
Ephrin type-A receptor 4 = Ephrin type-A receptor 4 (Mus musculus, UniProt Q03137); assay: inhibitors of EphA4 binding to KYL peptide, primary screen, biochemical, colorimetric, mouse EphA4 (AID 689); type: functional
Sequence of Ephrin type-A receptor 4 (Q03137 whole entry): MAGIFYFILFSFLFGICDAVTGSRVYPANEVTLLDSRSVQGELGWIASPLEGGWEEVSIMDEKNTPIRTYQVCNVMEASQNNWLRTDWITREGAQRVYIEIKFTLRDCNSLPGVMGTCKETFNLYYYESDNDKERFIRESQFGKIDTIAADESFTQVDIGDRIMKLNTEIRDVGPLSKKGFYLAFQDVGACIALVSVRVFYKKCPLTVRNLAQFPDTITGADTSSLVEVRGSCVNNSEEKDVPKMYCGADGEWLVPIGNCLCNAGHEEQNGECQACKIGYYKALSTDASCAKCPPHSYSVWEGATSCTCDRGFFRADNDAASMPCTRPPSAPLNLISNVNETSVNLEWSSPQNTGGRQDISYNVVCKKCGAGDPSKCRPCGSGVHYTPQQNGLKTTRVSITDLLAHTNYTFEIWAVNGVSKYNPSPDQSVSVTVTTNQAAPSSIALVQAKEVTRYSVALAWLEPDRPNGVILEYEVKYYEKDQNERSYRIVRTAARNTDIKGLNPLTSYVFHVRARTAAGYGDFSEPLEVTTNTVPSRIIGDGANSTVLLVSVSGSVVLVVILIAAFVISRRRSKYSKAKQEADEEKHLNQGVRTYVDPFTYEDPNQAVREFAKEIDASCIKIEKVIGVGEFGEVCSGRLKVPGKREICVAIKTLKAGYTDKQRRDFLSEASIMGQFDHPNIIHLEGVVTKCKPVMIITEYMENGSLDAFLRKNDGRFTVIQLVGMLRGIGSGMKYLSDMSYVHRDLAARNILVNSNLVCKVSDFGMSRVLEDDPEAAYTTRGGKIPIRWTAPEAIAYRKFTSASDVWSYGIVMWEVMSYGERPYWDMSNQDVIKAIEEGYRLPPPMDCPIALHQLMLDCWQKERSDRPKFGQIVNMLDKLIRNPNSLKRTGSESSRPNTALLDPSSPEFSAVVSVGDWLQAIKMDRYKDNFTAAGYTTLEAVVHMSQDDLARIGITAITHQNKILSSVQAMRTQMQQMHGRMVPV

[14] = biological target: T4, High affinity choline transporter 1 (Homo sapiens, UniProt Q9GZV3); assay: CHT activators, dose response, cell-based, 10-point CRC, membrane potential dye (AID 602376); type: functional
T4 sequence (Q9GZV3 whole entry): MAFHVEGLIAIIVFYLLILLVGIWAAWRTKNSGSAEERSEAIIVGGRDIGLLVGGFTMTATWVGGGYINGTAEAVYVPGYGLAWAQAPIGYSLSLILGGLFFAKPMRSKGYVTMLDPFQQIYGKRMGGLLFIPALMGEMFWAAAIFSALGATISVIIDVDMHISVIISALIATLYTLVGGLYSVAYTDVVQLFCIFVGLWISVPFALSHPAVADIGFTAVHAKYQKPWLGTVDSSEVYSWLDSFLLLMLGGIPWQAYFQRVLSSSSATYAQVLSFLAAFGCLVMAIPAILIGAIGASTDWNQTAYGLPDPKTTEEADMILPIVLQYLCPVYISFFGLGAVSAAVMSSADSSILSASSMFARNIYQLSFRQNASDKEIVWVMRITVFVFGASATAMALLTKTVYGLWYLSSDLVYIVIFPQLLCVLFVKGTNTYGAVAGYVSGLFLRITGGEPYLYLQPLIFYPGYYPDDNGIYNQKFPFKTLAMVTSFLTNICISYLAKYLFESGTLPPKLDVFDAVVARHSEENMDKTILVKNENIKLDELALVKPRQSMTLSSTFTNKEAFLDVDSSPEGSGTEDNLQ

[15] = biological target: Voltage-dependent T-type calcium channel subunit alpha-1H (Homo sapiens, UniProt O95180); type: functional;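 also: channel activity triggered by adding a high calcium stimulation buffer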
[16] = biological target: ALK tyrosine kinase receptor (Homo sapiens, UniProt Q9UM73); type: functional;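 also: ALK tested as one member of a kinase panel screen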
Sequence of ALK tyrosine kinase receptor (Q9UM73 whole entry): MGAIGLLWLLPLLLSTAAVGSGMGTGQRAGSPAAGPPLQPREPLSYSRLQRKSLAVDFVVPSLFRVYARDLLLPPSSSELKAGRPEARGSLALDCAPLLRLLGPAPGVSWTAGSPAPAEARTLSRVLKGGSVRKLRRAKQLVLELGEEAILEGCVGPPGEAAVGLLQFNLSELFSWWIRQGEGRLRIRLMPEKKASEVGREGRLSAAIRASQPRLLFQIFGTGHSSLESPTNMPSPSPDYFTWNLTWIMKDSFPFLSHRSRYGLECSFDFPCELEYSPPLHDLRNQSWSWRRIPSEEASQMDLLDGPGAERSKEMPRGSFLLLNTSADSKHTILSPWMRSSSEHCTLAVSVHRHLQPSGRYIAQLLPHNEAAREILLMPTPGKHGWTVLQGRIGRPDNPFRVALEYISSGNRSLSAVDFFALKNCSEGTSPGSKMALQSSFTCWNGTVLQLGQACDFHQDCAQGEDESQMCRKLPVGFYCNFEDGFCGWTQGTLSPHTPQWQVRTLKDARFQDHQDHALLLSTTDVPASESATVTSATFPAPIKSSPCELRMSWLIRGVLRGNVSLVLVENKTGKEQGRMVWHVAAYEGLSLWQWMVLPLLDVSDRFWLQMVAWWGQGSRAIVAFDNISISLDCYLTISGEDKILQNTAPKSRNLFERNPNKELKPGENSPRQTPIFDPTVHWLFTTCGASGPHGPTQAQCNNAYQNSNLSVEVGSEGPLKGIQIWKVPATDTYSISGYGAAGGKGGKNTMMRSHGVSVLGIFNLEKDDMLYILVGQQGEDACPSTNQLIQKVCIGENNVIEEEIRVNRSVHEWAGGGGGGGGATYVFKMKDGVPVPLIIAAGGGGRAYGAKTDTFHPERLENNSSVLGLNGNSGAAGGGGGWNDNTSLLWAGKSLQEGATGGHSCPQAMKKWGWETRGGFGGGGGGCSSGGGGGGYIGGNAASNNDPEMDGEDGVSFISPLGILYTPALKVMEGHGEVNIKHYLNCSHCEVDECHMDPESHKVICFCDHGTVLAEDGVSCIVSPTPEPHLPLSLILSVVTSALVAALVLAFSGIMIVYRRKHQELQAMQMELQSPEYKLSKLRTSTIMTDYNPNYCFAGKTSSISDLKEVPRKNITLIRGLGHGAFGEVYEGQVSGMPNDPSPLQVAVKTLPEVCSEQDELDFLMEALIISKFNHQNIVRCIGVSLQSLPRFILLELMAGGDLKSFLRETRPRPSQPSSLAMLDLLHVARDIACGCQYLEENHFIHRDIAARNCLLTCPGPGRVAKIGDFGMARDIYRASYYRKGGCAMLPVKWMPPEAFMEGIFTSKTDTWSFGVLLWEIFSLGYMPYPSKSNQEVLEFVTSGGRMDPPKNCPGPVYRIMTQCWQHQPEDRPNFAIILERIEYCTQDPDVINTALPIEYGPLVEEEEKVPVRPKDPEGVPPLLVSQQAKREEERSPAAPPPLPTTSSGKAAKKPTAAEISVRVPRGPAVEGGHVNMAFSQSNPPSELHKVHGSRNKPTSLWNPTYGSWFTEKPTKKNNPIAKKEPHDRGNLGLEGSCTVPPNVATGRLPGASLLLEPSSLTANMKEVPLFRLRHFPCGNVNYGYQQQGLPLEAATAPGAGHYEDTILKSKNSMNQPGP

[17] = biological target: Cell division cycle 7-related protein kinase (Homo sapiens, UniProt O00311); type: functional;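 also: value obtained from a kinome-wide kinase panel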
[18] = biological target: Sphingosine 1-phosphate receptor 2 (Homo sapiens, UniProt O95136); assay: S1P2 receptor agonists, human, late-stage follow-up, counter-screen for S1P4 agonist project, cell-based, fluorescence, set 2 (AID 504873); type: functional
[19] = biological target: Sphingosine 1-phosphate receptor 1 (Homo sapiens, UniProt P21453); assay: Late-stage fluorescence-based dose-response cell-based counterscreen assay to identify agonists of the Sphingosine 1-Phosphate Receptor 4 (S1P4): Sphingosine 1-Phosphate Receptor 1 (S1P1) agonist assay Set 2.; type: functional
[20] = biological target: Sphingosine 1-phosphate receptor 3 (Homo sapiens, UniProt Q99500); assay: Late-stage fluorescence-based dose-response cell-based counterscreen assay to identify agonists of the Sphingosine 1-Phosphate Receptor 4 (S1P4): Sphingosine 1-Phosphate Receptor 3 (S1P3) agonist assay Set 2.; type: functional
Sequence of Sphingosine 1-phosphate receptor 3 (Q99500 whole entry): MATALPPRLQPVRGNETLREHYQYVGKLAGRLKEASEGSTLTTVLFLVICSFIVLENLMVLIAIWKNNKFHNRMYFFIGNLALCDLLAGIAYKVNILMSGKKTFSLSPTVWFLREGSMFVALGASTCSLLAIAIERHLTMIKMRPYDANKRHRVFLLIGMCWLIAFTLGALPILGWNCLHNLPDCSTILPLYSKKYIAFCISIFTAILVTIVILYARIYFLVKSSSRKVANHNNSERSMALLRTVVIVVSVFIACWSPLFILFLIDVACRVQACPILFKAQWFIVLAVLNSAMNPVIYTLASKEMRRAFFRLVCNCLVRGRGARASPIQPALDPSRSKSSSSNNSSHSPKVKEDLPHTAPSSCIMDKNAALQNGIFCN

[21] = biological target: Sphingosine 1-phosphate receptor 5 (Homo sapiens, UniProt Q9H228); assay: S1P5 receptor agonists, human, late-stage follow-up, counter-screen for S1P4 agonist project, cell-based, fluorescence, set 2 (AID 504867); type: functional
[22] = biological target: Protein disulfide-isomerase (Homo sapiens, UniProt P07237); assay: PDI inhibitors, insulin aggregation turbidity, dose response, biochemical, absorbance, cherry-picked samples (AID 602350); type: functional
[23] = P. falciparum Dd2 growth inhibitors, dose response, SYBR Green, cherry-picked samples (AID 1159567); type: functional, cell-based
[24] = biological target: Serine/threonine-protein kinase Chk1 (Homo sapiens, UniProt O14757); type: functional;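 also: measured as one member of a kinome-wide kinase profiling panel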
Sequence of Serine/threonine-protein kinase Chk1 (O14757 whole entry): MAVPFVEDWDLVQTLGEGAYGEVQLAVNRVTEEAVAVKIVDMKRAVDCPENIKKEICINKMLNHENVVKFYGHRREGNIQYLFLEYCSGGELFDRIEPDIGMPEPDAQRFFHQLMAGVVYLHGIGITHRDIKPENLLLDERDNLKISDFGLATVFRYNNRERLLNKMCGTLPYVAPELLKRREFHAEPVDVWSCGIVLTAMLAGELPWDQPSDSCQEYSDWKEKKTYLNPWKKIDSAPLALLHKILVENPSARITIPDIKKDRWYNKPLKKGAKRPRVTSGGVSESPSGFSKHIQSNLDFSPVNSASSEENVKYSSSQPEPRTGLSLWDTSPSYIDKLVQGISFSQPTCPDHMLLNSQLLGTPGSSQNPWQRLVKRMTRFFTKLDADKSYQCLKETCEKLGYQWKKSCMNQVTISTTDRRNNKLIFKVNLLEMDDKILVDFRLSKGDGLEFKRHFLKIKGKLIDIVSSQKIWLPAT

[25] = biological target: Mitogen-activated protein kinase 8 (Homo sapiens, UniProt P45983); type: functional;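 also: value comes from one member of a kinome-wide kinase profiling panel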
[26] = biological target: Serine/threonine-protein kinase pim-1 (Homo sapiens, UniProt P11309); type: functional
Sequence of Serine/threonine-protein kinase pim-1 (P11309 whole entry): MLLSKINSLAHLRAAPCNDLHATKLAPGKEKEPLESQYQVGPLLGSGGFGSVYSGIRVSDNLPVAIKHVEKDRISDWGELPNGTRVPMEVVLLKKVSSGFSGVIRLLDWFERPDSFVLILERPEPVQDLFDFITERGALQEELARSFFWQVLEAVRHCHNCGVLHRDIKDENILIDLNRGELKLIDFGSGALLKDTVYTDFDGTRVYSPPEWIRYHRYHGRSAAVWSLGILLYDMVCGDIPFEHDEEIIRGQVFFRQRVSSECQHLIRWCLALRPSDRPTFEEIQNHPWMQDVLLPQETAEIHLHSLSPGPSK

[27] = biological target: Dual specificity protein kinase CLK4 (Homo sapiens, UniProt Q9HAZ1); type: functional
[28] = biological target: Inhibitor of nuclear factor kappa-B kinase subunit epsilon (Homo sapiens, UniProt Q14164); assay: Navigating the Kinome. Panel member name: IKBKE; type: functional
Sequence of Inhibitor of nuclear factor kappa-B kinase subunit epsilon (Q14164 whole entry): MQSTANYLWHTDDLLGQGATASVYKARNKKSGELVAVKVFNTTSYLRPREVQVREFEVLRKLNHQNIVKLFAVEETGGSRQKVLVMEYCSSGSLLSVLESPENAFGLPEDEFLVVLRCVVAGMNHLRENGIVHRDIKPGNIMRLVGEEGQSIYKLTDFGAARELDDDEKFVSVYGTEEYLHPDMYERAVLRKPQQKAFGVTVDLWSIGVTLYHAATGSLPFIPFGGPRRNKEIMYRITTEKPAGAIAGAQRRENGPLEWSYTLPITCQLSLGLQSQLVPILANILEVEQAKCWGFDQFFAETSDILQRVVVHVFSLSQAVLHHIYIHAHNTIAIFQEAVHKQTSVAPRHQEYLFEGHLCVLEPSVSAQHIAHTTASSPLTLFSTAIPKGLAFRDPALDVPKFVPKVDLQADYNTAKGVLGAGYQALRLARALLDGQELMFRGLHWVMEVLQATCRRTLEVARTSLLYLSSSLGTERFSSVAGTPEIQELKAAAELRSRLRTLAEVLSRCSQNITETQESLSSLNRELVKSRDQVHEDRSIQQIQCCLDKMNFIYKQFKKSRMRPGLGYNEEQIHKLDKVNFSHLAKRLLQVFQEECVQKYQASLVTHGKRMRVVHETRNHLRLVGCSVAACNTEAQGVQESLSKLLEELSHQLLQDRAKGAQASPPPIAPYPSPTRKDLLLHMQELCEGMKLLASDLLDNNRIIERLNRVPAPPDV

[29] = biological target: cAMP-dependent protein kinase catalytic subunit PRKX (Homo sapiens, UniProt P51817); type: functional
Wee1-like protein kinase = Wee1-like protein kinase (Homo sapiens, UniProt P30291); assay: Navigating the Kinome. Panel member name: WEE1; type: functional

For `CNc1nc(SCc2ccccc2Cl)nc2c1CCCC2`, the CC50 [1] was 25.6 µM (active), the CC50 [2] was 49.2 µM (active) and the AC50 [3] was 8.66 µM (active). For the same compound, the CC50 [4] was 9.68 µM (active), the CC50 [5] was 36.2 µM (active) and the EC50 [6] was 4.73 µM (active).

For `O=[N+]([O-])c1c(O)nc2ccc(Cl)cc2c1-c1ccccc1`, the IC50 (Orexin receptor type 2 [7]) was 1.5 µM (active), the IC50 [8] was > 49.8 µM (inactive) and the IC50 [9] was 915 nM (active). For the same compound, the IC50 (CHO-K1) was > 66.2 µM (inactive), the IC50 (Orexin receptor type 2 [10]) was > 88.8 µM (inactive) and the IC50 [11] was > 49.8 µM (inactive).

For `CCSc1nnc(-c2sc3nnc(-c4ccccc4)c(-c4ccccc4)c3c2N)o1`, the AC50 [3] was 0.286 µM (active), the IC50 [12] was 2.44 µM (active) and the EC50 [13] was 6.9 µM (active). The IC50 (Ephrin type-A receptor 4) was 4.62 µM (active).

In the case of `CCN(CC)CCn1c(NCc2nc3ccccc3n2Cc2ccccc2)nc2ccccc21`, the EC50 [14] was 11.4 µM (active) and the EC50 [15] was 4.94 µM (active).

With `O=c1cc(-c2ccccc2)nc(NC2CCCCC2)[nH]1` the Ki [16] was > 5.01 µM (inactive) and the Ki [17] was 251 nM (active).

For `CC/N=C1/S/C(=C/c2cc(C)n(-c3ccccn3)c2C)C(=O)N1CC`, the EC50 [18] was > 25 µM (inactive), the EC50 [19] was 103 nM (active) and the EC50 [20] was > 25 µM (inactive). For the same compound, the EC50 [21] was 720 nM (active).

With `C[C@H](CO)N1C[C@H](C)[C@@H](CN(C)S(=O)(=O)c2ccccc2)Oc2ccc(NC(=O)Cc3cn(C)c4ccccc34)cc2C1=O` the AC50 [22] was 125 nM (active) and the AC50 [23] was 4.29 µM (active).

In the case of `COc1ccc(C(=O)Nc2ccccc2C(=O)O)cc1OC`, the Ki [24] was 1.58 µM (active), the Ki [25] was 2.51 µM (active) and the Ki [26] was 5.01 µM (active). The Ki [27] was 1.58 µM (active).

In the case of `O=C(O)C1CN(Cc2ccc(OCc3cccc(C(F)(F)F)c3)cc2F)C1`, the Ki [28] was 3.16 µM (active) and the Ki [29] was 2.51 µM (active).

For `CCN1CCN(c2ccc(Nc3ncc(Cl)c(Nc4ccc(O)c(NC(C)=O)c4)n3)cc2)CC1`, the Ki (Wee1-like protein kinase) was 7.94 nM (active) and the Ki [16] was 0.501 µM (active).
